Assay results from article PMC5006990 (PLoS ONE, 2016).
Values after ≈ are worked out from the molar mass of the structure shown. Like-named read-outs stand apart in the source and are kept apart here.

Tests used:
[1] = system: Mtb; settings: cited from earlier work; for inhibition of the growth of Mtb: in words
[2] = system: Mtb 5; assay: microbe, parasite or virus in culture; format: cell-based, Mycobacterium tuberculosis; settings: Mycobacterium tuberculosis, 5, read-out: MIC (μg/mL) Mtb 5
[3] = system: Mtb 365; assay: microbe, parasite or virus in culture; format: cell-based, Mycobacterium tuberculosis; settings: Mycobacterium tuberculosis, 365, read-out: MIC (μg/mL) Mtb 365
[4] = system: Mtb 352; assay: microbe, parasite or virus in culture; format: cell-based, Mycobacterium tuberculosis; settings: Mycobacterium tuberculosis, 352, read-out: MIC (μg/mL) Mtb 352
[5] = system: Mtb 56; assay: microbe, parasite or virus in culture; format: cell-based, Mycobacterium tuberculosis; settings: Mycobacterium tuberculosis, 56, read-out: MIC (μg/mL) Mtb 56
[6] = system: Mtb C-31; assay: microbe, parasite or virus in culture; format: cell-based; settings: Mycobacterium tuberculosis, C31, read-out: MIC (μg/mL) Mtb C-31
[7] = system: M. tuberculosis ATCC 35801 (strain Erdman); assay: Microtiter broth dilution MIC, Mtb Erdman; settings: for MIC (μg/mL) Mtb: Erdmann strain (ATCC 35801), screening rounds 1 and 2; for MIC (μg/mL) Mtb Erdman: Table 1 panel
[8] = target: T1, MtbDHFR (Mycobacterium tuberculosis, UniProt P9WNX1); settings: in words; cited from earlier work
T1 sequence (P9WNX1 whole entry): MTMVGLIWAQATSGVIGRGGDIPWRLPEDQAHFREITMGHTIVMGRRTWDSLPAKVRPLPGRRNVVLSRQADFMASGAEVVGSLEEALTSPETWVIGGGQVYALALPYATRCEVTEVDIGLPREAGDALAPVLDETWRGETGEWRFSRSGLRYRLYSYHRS

[9] = target: T1, MtbDHFR; assay: biochemical; format: biochemical
[10] = target: T2, HuDHFR (Homo sapiens, UniProt P00374); assay: Human DHFR enzyme inhibition (NADPH oxidation at 340 nm); format: biochemical; settings: triplicate, mean ± SD
T2 construct: made in house
T2 sequence (P00374 1-187): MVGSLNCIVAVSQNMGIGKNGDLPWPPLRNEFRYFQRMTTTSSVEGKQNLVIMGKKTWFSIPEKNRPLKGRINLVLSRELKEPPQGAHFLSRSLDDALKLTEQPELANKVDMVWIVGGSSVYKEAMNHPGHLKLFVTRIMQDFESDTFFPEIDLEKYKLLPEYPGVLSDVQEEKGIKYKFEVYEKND

[11] = system: Mtb 276; assay: microbe, parasite or virus in culture; format: cell-based, Mycobacterium tuberculosis; settings: Mycobacterium tuberculosis, 276, read-out: MIC (μg/mL) Mtb 276
[12] = system: M. smegmatis (parent strain); assay: MIC against M. smegmatis parent strain; settings: Mycolicibacterium smegmatis, read-out: MIC (µg/mL) M. smegmatis (parent strain)
[13] = system: M. smegmatis (Overexpressing DHFR Strain 1); assay: MIC against M. smegmatis overexpressing DHFR, strain 1; settings: Mycolicibacterium smegmatis, read-out: MIC (µg/mL) M. smegmatis (Overexpressing DHFR Strain 1)
[14] = system: M. smegmatis (Overexpressing DHFR Strain 2); assay: MIC against M. smegmatis overexpressing DHFR, strain 2; settings: Mycolicibacterium smegmatis, read-out: MIC (µg/mL) M. smegmatis (Overexpressing DHFR Strain 2)

SMILES	MIC [2] [µg/mL]	MIC [3] [µg/mL]	MIC [4] [µg/mL]	MIC [5] [µg/mL]	MIC [6] [µg/mL]	MIC (μg/mL) Mtb [7] [µg/mL]	MIC (μg/mL) Mtb Erdman [7] [µg/mL]	also measured
Nc1nc(N)c2c(Cl)c(CNc3ccc(C(=O)O)cc3)ccc2n1 [DQn-1]								MIC ([1]; Glaxo antifolate collection screen): 0.03 µM; MIC ([1]; Glaxo antifolate library screen): 0.03 µg/mL
NNC(=O)c1ccncc1 [INH, Isoniazid, reference compound]	4 (≈ 29.2 µM)	2 (≈ 14.6 µM)	1 (≈ 7.29 µM)	1 (≈ 7.29 µM)	4 (≈ 29.2 µM)	0.03 (≈ 0.219 µM)	0.125 (≈ 0.911 µM)	
CN(Cc1cnc2nc(N)nc(N)c2n1)c1ccc(C(=O)N[C@@H](CCC(=O)O)C(=O)O)cc1 [Methotrexate]								inhibition of the growth of Mtb [1]: fail to inhibit the growth
COc1cc(Cc2cnc(N)nc2N)cc(OC)c1OC [TMP, reference compound]						256 (≈ 882 µM)		
COc1cc(NCc2ccc3nc(N)nc(N)c3c2C)cc(OC)c1OC [Trimetrexate]						4 (≈ 10.8 µM)		inhibition of the growth of Mtb [1]: fail to inhibit the growth; inhibition of the MtbDHFR enzyme [8]: potent inhibitors
CCc1nc(N)nc(N)c1C#CCc1cc(OC)c(OC)c(-c2ccncc2)c1 [UCP1039]						32 (≈ 82.2 µM)		IC50 ([9]; triplicate, mean ± SD, read-out: IC50 (nM) MtbDHFR): 297 ± 38 nM; IC50 [10]: 495 ± 58 nM
CCc1nc(N)nc(N)c1C#C[C@H](C)c1cc(-c2ccncc2)ccc1OC [UCP1063]						2 (≈ 5.36 µM)		
CCc1nc(N)nc(N)c1C#CC(C)c1cc(-c2cncn2C)ccc1OC (stereo not shown) [UCP1084]	4 (≈ 10.6 µM)	4 (≈ 10.6 µM)	4 (≈ 10.6 µM)	4 (≈ 10.6 µM)	8 (≈ 21.3 µM)	2 (≈ 5.31 µM)	4 (≈ 10.6 µM)	MIC [11]: 4 µg/mL (≈ 10.6 µM); MIC [12]: 1 µg/mL (≈ 2.66 µM); MIC [13]: 64 µg/mL (≈ 170 µM); MIC [14]: 16 µg/mL (≈ 42.5 µM)
CCc1nc(N)nc(N)c1C#C[C@H](C)c1cc2c(c(-c3ccncc3)c1)OCO2 [UCP1098]	8 (≈ 20.6 µM)	4 (≈ 10.3 µM)	8 (≈ 20.6 µM)	8 (≈ 20.6 µM)	16 (≈ 41.3 µM)	4 (≈ 10.3 µM)	8 (≈ 20.6 µM)	IC50 [9]: 206 ± 6 nM; MIC [11]: 8 µg/mL (≈ 20.6 µM); MIC [12]: 0.5 µg/mL (≈ 1.29 µM); MIC [13]: 64 µg/mL (≈ 165 µM); MIC [14]: 32 µg/mL (≈ 82.6 µM)
CCc1nc(N)nc(N)c1C#CC(C)c1cc2c(c(-c3cncn3C)c1)OCO2 (stereo not shown) [UCP1102]	8 (≈ 20.5 µM)	8 (≈ 20.5 µM)	4 (≈ 10.2 µM)	8 (≈ 20.5 µM)	8 (≈ 20.5 µM)	2 (≈ 5.12 µM)	4 (≈ 10.2 µM)	MIC [11]: 4 µg/mL (≈ 10.2 µM); MIC [12]: 1 µg/mL (≈ 2.56 µM); MIC [13]: 64 µg/mL (≈ 164 µM); MIC [14]: 32 µg/mL (≈ 82 µM)
CCc1nc(N)nc(N)c1C#CCc1cc(-c2ccc(C(=O)O)cc2)ccc1OC [UCP1106]	8 (≈ 19.9 µM)	4 (≈ 9.94 µM)	16 (≈ 39.8 µM)	16 (≈ 39.8 µM)	> 32	4 (≈ 9.94 µM)	16 (≈ 39.8 µM)	MIC [11]: 16 µg/mL (≈ 39.8 µM); MIC [12]: 8 µg/mL (≈ 19.9 µM); MIC [13]: > 32 µg/mL; MIC [14]: > 32 µg/mL
CCc1nc(N)nc(N)c1C#C[C@H](C)c1cc(-c2ccc(C(=O)O)cc2)ccc1OC [UCP1163]						16 (≈ 38.4 µM)		
CCc1nc(N)nc(N)c1C#C[C@@H](C)c1cc(-c2ccc(C(=O)O)cc2)ccc1OC [UCP1164]						0.5 (≈ 1.2 µM)		
CCc1nc(N)nc(N)c1C#C[C@H](C)c1cc(OC)cc(-c2ccc(C(=O)O)cc2)c1 [UCP1172]	0.25 (≈ 0.6 µM)	< 0.03	0.06 (≈ 0.144 µM)	0.06 (≈ 0.144 µM)	8 (≈ 19.2 µM)	<0.03	<0.03	
CCc1nc(N)nc(N)c1C#CCc1cc(OC)cc(-c2ccc(C(=O)O)cc2)c1 [UCP1175]	2 (≈ 4.97 µM)	0.125 (≈ 0.311 µM)	0.5 (≈ 1.24 µM)	0.5 (≈ 1.24 µM)	8 (≈ 19.9 µM)	0.125 (≈ 0.311 µM)	0.5 (≈ 1.24 µM)	IC50 ([9]; IC50 (nM) MtbDHFR): 460 ± 50 nM
CCc1nc(N)nc(N)c1-c1ccc(Cl)cc1 [pyrimethamine]								inhibition of the growth of Mtb [1]: fail to inhibit the growth; inhibition of the MtbDHFR enzyme [8]: potent inhibitors
